From patent US7157495B2, “Hexahydrofuro[2,3-B]furan-3-YL-N-{3-[(1,3-benzodioxol-5-ylsulfonyl)(isobutyl)amino]-1-benzyl-2-hydroxypropyl}carbamate as retroviral protease inhibitor” (Tibotec Pharmaceuticals, Ltd., priority 1999, dated 2007)
Like-named read-outs stand apart in the source and are kept apart here.

Experiments:
HIV = experiment: Anti-HIV activity in the presence of human serum proteins (HSA or AAG); assay type: cell-based
Protocol: HIV- or mock-infected MT4 cells were incubated for five days in the presence of various concentrations of the inhibitor. At the end of the incubation period, all HIV-infected cells have been killed by the replicating virus in the control cultures in the absence of any inhibitor. Cell viability is measured by measuring the concentration of MTT, a yellow, water soluble tetrazolium dye that is converted to a purple, water insoluble formazan in the mitochondria of living cells only. Upon solubilization of the resulting formazan crystals with isopropanol, the absorbance of the solution is monitored at 540 nm. The values correlate directly to the number of living cells remaining in the culture at the completion of the five day incubation. The inhibitory activity of the compound was monitored on the virus-infected cells and was expressed as IC50 and IC90. […]
Human serum proteins like albumin (HSA) or alpha-1 acid glycoprotein (AAG) are known to bind many drugs, resulting in a possible decrease in the effectiveness of those compounds. In order to determine whether compound 13 would be adversely effected by this binding, the anti-HIV activity of the compound was measured in the presence of physiological concentrations of HSA or AAG, thus evaluating the effect of the binding of the inhibitor to those proteins.

[1] = Oral absorption in rats, serum concentration; assay type: in vivo; conditions: single oral dose 20 mg/kg in PEG400 by gavage, read-out: Compound concentration in serum
Protocol: The oral absorption of compound 13 was then measured in rats to determine bioavailability. The compound was administered by gavage to rats, as a single dose of 20 mg/kg in PEG400. Animals were sacrificed at different time points after administration, whole blood was collected and serum prepared by standard methods. Concentration of the compound in serum was determined by titrating the anti-HIV activity present in the sample according to the procedure described above.

HIV-1 strain LAI = experiment: Cellular anti-HIV assay in MT4 cells (MTT); assay type: cell-based; conditions: for IC50: read-out: IC50
Protocol: (§1) HIV- or mock-infected MT4 cells were incubated for five days in the presence of various concentrations of the inhibitor. At the end of the incubation period, all HIV-infected cells have been killed by the replicating virus in the control cultures in the absence of any inhibitor. Cell viability is measured by measuring the concentration of MTT, a yellow, water soluble tetrazolium dye that is converted to a purple, water insoluble formazan in the mitochondria of living cells only. Upon solubilization of the resulting formazan crystals with isopropanol, the absorbance of the solution is monitored at 540 nm. The values correlate directly to the number of living cells remaining in the culture at the completion of the five day incubation. The inhibitory activity of the compound was monitored on the virus-infected cells and was expressed as IC50 and IC90. These values represent the amount of the compound required to protect 50% and 90%, respectively, of the cells from the cytopathogenic effect of the virus. The toxicity of the compound was measured on the mock-infected cells and was expressed as CC50, which represents the concentration of compound required to inhibit the growth of the cells by 50%. The select index (SI) (ratio CC50/IC50) is an indication of the selectivity of the anti-HIV activity of the inhibitor.

HIV strain r13033 = experiment: Antiviral spectrum, protease inhibitor resistant strain; assay type: cell-based; conditions: strain r13033; L10I, M46L, I54V, L63P, A71V, V82A, L90M
Protocol: as §1
(§2) Because of the increasing emergence of drug resistant HIV strains, compound 13 and compound 14 were tested for its potency against HIV strains harbouring several mutations. These mutations are associated with resistance to protease inhibitors and result in viruses that show various degrees of phenotypic cross-resistance to five of the currently commercially available drugs (Saquinavir, Ritonavir, Nelfinavir, Indinavir and Amprenavir).

HIV strain r13025 = experiment: as above; assay type: cell-based; conditions: strain r13025; L10I, M46I, L63P, A71V, I84V
Protocol: as §1, §2

HIV strain r13037 = experiment: as above; assay type: cell-based; conditions: strain r13037; L10I, M46I, I54V, L63P, A71T, V77I, V82A, L90M
Protocol: as §1, §2

HIV strain r13027 = experiment: as above; assay type: cell-based; conditions: strain r13027; L10M/I, K20R, M36I, L63P, A71V, G73S, V77I, I84V, L90M
Protocol: as §1, §2

HIV strain r13031 = experiment: as above; assay type: cell-based; conditions: strain r13031; G48V, I54V, V77I, V82A, L90M/L
Protocol: as §1, §2

HIV strain r13035 = experiment: as above; assay type: cell-based; conditions: strain r13035; D30N, L63P, V77I, N88D
Protocol: as §1, §2

HIV strain r13036 = experiment: as above; assay type: cell-based; conditions: strain r13036; L10I, L63P, A71V, G73S, L90M
Protocol: as §1, §2

HIV strain r13021 = experiment: as above; assay type: cell-based; conditions: strain r13021; L10I, K20R, L24I, M36I, I54V, L63P, A71V, V82T, I84V
Protocol: as §1, §2

HIV strain r13022 = experiment: as above; assay type: cell-based; conditions: strain r13022; K20R, M36I, M46I/M, 154V, L63P, A71V/I, V82T, L90M
Protocol: as §1, §2

HIV strain r13023 = experiment: as above; assay type: cell-based; conditions: strain r13023; L10I, M36I/M, I54V/I, L63P, A71V, G73S, I84V, L90M
Protocol: as §1, §2

HIV strain r13024 = experiment: as above; assay type: cell-based; conditions: strain r13024; L10I, M36I, L63P, A71V, G73S, I84V, L90M
Protocol: as §1, §2

HIV strain r13029 = experiment: as above; assay type: cell-based; conditions: strain r13029; L10I/L, M36I, M46L, L63P, A71V, I84V, N88D, L90M
Protocol: as §1, §2

HIV strain r13034 = experiment: as above; assay type: cell-based; conditions: strain r13034; L10I, M36I, I54V, L63P, A71V, I84V
Protocol: as §1, §2

HIV strain r13030 = experiment: as above; assay type: cell-based; conditions: strain r13030; L10V/I, M36I, I54V, L63P, A71V, V82T, L90M
Protocol: as §1, §2

CC(C)CN(CC(O)C(Cc1ccccc1)NC(=O)OC1COC2OCCC12)S(=O)(=O)c1ccc2c(c1)OCO2 (stereo not shown) [Compound 13, hexahydrofuro[2,3-b]furan-3-yl-N-{3-[(1,3-benzodioxol-5-ylsufonyl)(isobutyl)amino]-1-benzyl-2-hydroxypropyl}carbamate]
decrease of the potency (HIV; AAG at a concentration of 2 mg/ml): two to four
effect on the potency (HIV; HSA at a concentration of 45 mg/ml): no effect
concentration at 0 min ([1]; rat, serum, po, 20 mg/kg, 0 minutes after administration): 0 nM
concentration at 60 min ([1]; rat, serum, po, 20 mg/kg, 60 minutes after administration): 1000 nM
concentration at 180 min ([1]; rat, serum, po, 20 mg/kg, 180 minutes after administration): 687 nM
concentration at 300 min ([1]; rat, serum, po, 20 mg/kg, 300 minutes after administration): 216 nM
concentration at 300 min ([1]; 60 minutes after administration): 985.8 nM
SI (ratio CC50/IC50) (HIV-1 strain LAI; CC50 on mock-infected MT4 cells / IC50 on HIV-1 LAI): 13,900
IC90 (HIV-1 strain LAI; Human immunodeficiency virus 1, 120 h, HIV-1 strain LAI, MT4 cells, five days, median value of 12 determinations): 2.4 nM
IC50 (HIV-1 strain LAI; Human immunodeficiency virus 1, MT4, 120 h, HIV-1 strain LAI, MT4 cells, five days): 1.1 nM
IC50 (HIV-1 strain LAI; strain LAI): 1.4 nM
IC50 (HIV strain r13033): 1.7 nM
IC50 (HIV strain r13025): 45.4 nM
IC50 (HIV strain r13037): 0.3 nM
IC50 (HIV strain r13027): 7.4 nM
IC50 (HIV strain r13031): 0.5 nM
IC50 (HIV strain r13035): 0.3 nM
IC50 (HIV strain r13036): 5.4 nM
IC50 (HIV strain r13021): 5.5 nM
IC50 (HIV strain r13022): 1.7 nM
IC50 (HIV strain r13023): 6.8 nM
IC50 (HIV strain r13024): 8.1 nM
IC50 (HIV strain r13029): 7 nM
IC50 (HIV strain r13034): 8 nM
IC50 (HIV strain r13030): 0.4 nM
